Assay results: ChEMBL document CHEMBL3045784, “Effects of oleic acid on the tissue factor activity, blood lipids, antioxidant and oxidant parameters of streptozotocin induced diabetic rats fed a high-cholesterol diet” (Med Chem Res, 2010)

Assays:
[1] = tested on: Rattus norvegicus; test: Anticoagulant activity in Rattus norvegicus Wistar (rat) diabetic-hyperlipidemic model assessed as decrease in TFa activity in brain measuring clotting time at 10.91% administered through feeding measured after 12 weeks (reference value: 50.5 +/- 1.77 secs); format: functional
[2] = tested on: Rattus norvegicus; test: Anticoagulant activity in Rattus norvegicus Wistar (rat) diabetic-hyperlipidemic model assessed as fibrinogen level at 10.91% administered through feeding measured after 12 weeks (reference value: 2.13 +/- 0.23 g/l); format: functional
[3] = tested on: Rattus norvegicus; test: Increase in blood GSH level in Rattus norvegicus Wistar (rat) diabetic-hyperlipidemic model at 10.91% administered through feeding measured after 12 weeks (reference value: 20.31 +/- 0.93 %mg); format: functional
[4] = tested on: Rattus norvegicus; test: Antidiabetic activity in Rattus norvegicus Wistar (rat) diabetic-hyperlipidemic model assessed as serum glucose level at 10.91% administered through feeding measured after 12 weeks ( Rvb = 194.4 +/- 23.99 mg/dl); format: functional
[5] = tested on: Rattus norvegicus; test: Anticoagulant activity in Rattus norvegicus Wistar (rat) diabetic-hyperlipidemic model assessed as decrease in TFa activity in aorta measuring clotting time at 10.91% administered through feeding measured after 12 weeks (reference value: 36.25 +/- 1.39 secs); format: functional
[6] = tested on: Rattus norvegicus; test: Antihyperlipidemic activity in Rattus norvegicus Wistar (rat) diabetic-hyperlipidemic model assessed as serum HDL-cholesterol level at 10.91% administered through feeding measured after 12 weeks ( Rvb = 22.80 +/- 2.41 mg/dl); format: functional
[7] = tested on: Rattus norvegicus; test: Toxicity in Rattus norvegicus Wistar (rat) diabetic-hyperlipidemic model assessed as change in body weight at 10.91% administered through feeding measured for 12 weeks ( Rvb = 290 +/-76 g); format: organism-based; settings: in vivo, po, 2016 h
[8] = tested on: Rattus norvegicus; test: Anticoagulant activity in Rattus norvegicus Wistar (rat) diabetic-hyperlipidemic model assessed as decrease in TFa activity in liver measuring clotting time at 10.91% administered through feeding measured after 12 weeks (reference value: 74.38 +/- 4.60 secs); format: functional
[9] = tested on: Rattus norvegicus; test: Antihyperlipidemic activity in Rattus norvegicus Wistar (rat) diabetic-hyperlipidemic model assessed as serum total cholesterol level at 10.91% administered through feeding measured after 12 weeks ( Rvb = 309 +/- 35.88 mg/dl); format: functional
[10] = tested on: Rattus norvegicus; test: Anticoagulant activity in Rattus norvegicus Wistar (rat) diabetic-hyperlipidemic model assessed as decrease in TFa activity in kidney measuring clotting time at 10.91% administered through feeding measured after 12 weeks (reference value: 52.38 +/- 2 secs); format: functional
[11] = tested on: Rattus norvegicus; test: Antihyperlipidemic activity in Rattus norvegicus Wistar (rat) diabetic-hyperlipidemic model assessed as serum triglyceride level at 10.91% administered through feeding measured after 12 weeks ( Rvb = 86.45 +/- 5.7 mg/dl); format: functional
[12] = tested on: Rattus norvegicus; test: Anticoagulant activity in Rattus norvegicus Wistar (rat) diabetic-hyperlipidemic model assessed as prothombin time at 10.91% administered through feeding measured after 12 weeks (reference value: 14.69 +/- 0.8 secs); format: functional
[13] = tested on: Rattus norvegicus; test: Antioxidant activity in Rattus norvegicus Wistar (rat) diabetic-hyperlipidemic model assessed as serum malondialdehyde level at 10.91% administered through feeding measured after 12 weeks by TBARS assay (reference value: 5.78 +/- 0.08 nmol/ml); format: functional
[14] = tested on: Rattus norvegicus; test: Anticoagulant activity in Rattus norvegicus Wistar (rat) diabetic-hyperlipidemic model assessed as decrease in TFa activity in spleen measuring clotting time at 10.91% administered through feeding measured after 12 weeks (reference value: 69.63 +/- 1.77 secs); format: functional
[15] = tested on: Rattus norvegicus; test: Anticoagulant activity in Rattus norvegicus Wistar (rat) diabetic-hyperlipidemic model assessed as decrease in TFa activity in heart measuring clotting time at 10.91% administered through feeding measured after 12 weeks (reference value: 27.13 +/- 3.72 secs); format: functional
[16] = tested on: Rattus norvegicus; test: Anticoagulant activity in Rattus norvegicus Wistar (rat) diabetic-hyperlipidemic model assessed as decrease in TFa activity in pancreas measuring clotting time at 10.91% administered through feeding measured after 12 weeks (reference value: 27.25 +/- 2.82 secs); format: functional
[17] = tested on: Rattus norvegicus; test: Anticoagulant activity in Rattus norvegicus Wistar (rat) diabetic-hyperlipidemic model assessed as decrease in TFa activity in lung measuring clotting time at 10.91% administered through feeding measured after 12 weeks (reference value: 19.25 +/- 3.20 secs); format: functional
[18] = tested on: Rattus norvegicus; test: Antihyperlipidemic activity in Rattus norvegicus Wistar (rat) diabetic-hyperlipidemic model assessed as serum LDL-cholesterol level at 10.91% administered through feeding measured after 12 weeks ( Rvb = 74.25 +/- 9.36 mg/dl); format: functional
[19] = tested on: Rattus norvegicus; test: Antihyperlipidemic activity in Rattus norvegicus Wistar (rat) diabetic-hyperlipidemic model assessed as serum total lipid level at 10.91% administered through feeding measured after 12 weeks ( Rvb = 922.25 +/- 41.78 mg/dl); format: functional
[20] = tested on: Rattus norvegicus; test: Anticoagulant activity in Rattus norvegicus Wistar (rat) diabetic-hyperlipidemic model assessed as activated partial thromboplastin time at 10.91% administered through feeding measured after 12 weeks (reference value: 17.13 +/- 1.73 secs); format: functional

**Q.** What does the source list for `CCCCCCCC/C=C\CCCCCCCC(=O)O` [OLEIC ACID]?
**A.** Time [1]: 60.13 s; Activity [2]: 1.97 g/L; Activity [3]: 29.96 %mg; Activity [4]: 190.63 mg/dL; Time [5]: 33.5 s; Activity [6]: 25.53 mg/dL; Activity [7]: 243 g; Time [8]: 77.25 s; Activity [9]: 351.3 mg/dL; Time [10]: 65.13 s; Activity [11]: 71.68 mg/dL; PT [12]: 15.1 s; Activity [13]: 5.81 nmol/mL; Time [14]: 62.25 s; Time [15]: 28.25 s; Time [16]: 28.5 s; Time [17]: 20.38 s; Activity [18]: 74.63 mg/dL; Activity [19]: 773.75 mg/dL; APTT [20]: 17.88 s
